Laboratory results: the supplement of paper PMC11208160

Assay: recombinant barcode read abundance after kanamycin selection (control-corrected) (log10(CPM+1)); higher = more efficient recombination; sequences stand for … in AGTGCAGAGAAAATCGGCCAGTTTTCTCTGCCTGCAGTCCGCATGCCGT…AGATTTATGCAGCGGACTGCCTTTCTCCCAAAGTGATAAACCGGACAGTATCATGGACCGGTTTTCCCGGTAATCCGTATTTGCAAGGTTGGTTTCACT; site = the 11-nt target
Summary of the method: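 Pooled E. coli screen pairing targets with IS621 bridge RNA target-binding loops. Each oligo (promoter, target, barcode, J23119-driven first 104 bridge RNA bases) was Gibson-cloned into a vector with the remaining 73 bp and T7-inducible recombinase, then co-electroporated with a donor plasmid. Two replicates each were plated on chloramphenicol/ampicillin LB agar (control) or chloramphenicol/ampicillin/kanamycin with 0.1 mM IPTG. Recombination efficiency is recombinant-junction barcode counts as CPM, averaged, control-corrected, reported as log10(CPM+1).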
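Note: IS621 recombinase and bridge RNA in Escherichia coli cells.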

Sequence | recombinant barcode read abundance (log10)
CCTCAGGCTTGGGTTCTAACCTGTTGCCA (site CCTCAGGCTGG) | 0.217
CCTCAGGCTTGGGTTCTAACCTGTTGCCA (site CCTCAGGCTTG) | 0.323
CCTCAGGCTTGGGTTCTAACCTGTTGCCC (site CCTCAGGCTAG) | 0.0156
CCTCAGGCTTGGGTTCTAACCTGTTGCCC (site CCTCAGGCTCG) | 0.0734
CCTCAGGCTTGGGTTCTAACCTGTTGCCC (site CCTCAGGCTGG) | 0.651
CCTCAGGCTTGGGTTCTAACCTGTTGCCC (site CCTCAGGCTTG) | 0.399
CCTCAGGCTTGGGTTCTAACCTGTTGCCG (site CCTCAGGCTAG) | 0.0315
CCTCAGGCTTGGGTTCTAACCTGTTGCCG (site CCTCAGGCTCG) | 0.229
CCTCAGGCTTGGGTTCTAACCTGTTGCCG (site CCTCAGGCTGG) | 0.107
CCTCAGGCTTGGGTTCTAACCTGTTGCCG (site CCTCAGGCTTG) | 0.125
CCTCAGTCTTGGGTTCTAACCTGTTGCGA (site CCTCACTCTCC) | 0.0773
CCTCAGTCTTGGGTTCTAACCTGTTGCGA (site CCTCAGTCTTC) | 1.81
CCTCATTCTTGGGTTCTAACCTGTTGCTT (site CCTCAATCTAA) | 0.0648
CCTCATTCTTGGGTTCTAACCTGTTGCTT (site CCTCACTCTAA) | 0
CCTCATTCTTGGGTTCTAACCTGTTGCTT (site CCTCAGTCTAA) | 0.142
CCTCATTCTTGGGTTCTAACCTGTTGCTT (site CCTCATTCTAA) | 0.199
CCTCTGGCTTGGGTTCTAACCTGTTGCCT (site CCGCTGTCTAG) | 0.808
CCTCTGGCTTGGGTTCTAACCTGTTGCCT (site CCTCTGGCTAG) | 0.514
CCTGACTCTTGGGTTCTAACCTGTTGCCT (site CCTGAATCTAG) | 0.088
CCTGACTCTTGGGTTCTAACCTGTTGCCT (site CCTGACTCTAG) | 0.85
CCTGACTCTTGGGTTCTAACCTGTTGCCT (site CCTGAGTCTAG) | 0.0146
CCTGACTCTTGGGTTCTAACCTGTTGCCT (site CCTGATTCTAG) | 0.195

Sequence | recombinant barcode read abundance (log10)
CCTGCGACTTGGGTTCTAACCTGTTGCCT (site CCTGCGACTAG) | 0.408
CCTGCGACTTGGGTTCTAACCTGTTGCCT (site CCTGCGGCTAG) | 0.0687
CCTGCTCCTTGGGTTCTAACCTGTTGCTT (site CCTACTCCTAG) | 0.0276
CCTGCTCCTTGGGTTCTAACCTGTTGCTT (site CCTGCTCCTAA) | 0.393
CCTGGGACTTGGGTTCTAACCTGTTGCGA (site CCTGGGACTAC) | 0.0343
CCTGGGACTTGGGTTCTAACCTGTTGCGA (site CCTGGGACTCC) | 0.256
CCTGGGACTTGGGTTCTAACCTGTTGCGA (site CCTGGGACTGC) | 0.961
CCTGGGACTTGGGTTCTAACCTGTTGCGA (site CCTGGGACTTC) | 2.58
CCTGGTCCTTGGGTTCTAACCTGTTGCCT (site CCTGGGGCTAG) | 0.16
CCTGGTCCTTGGGTTCTAACCTGTTGCCT (site CCTGGTCCTAG) | 1.56
CCTTAGACTTGGGTTCTAACCTGTTGCGT (site CCTAATACTAC) | 0.107
CCTTAGACTTGGGTTCTAACCTGTTGCGT (site CCTTAGACTAC) | 1.8
CCTTCTACTTGGGTTCTAACCTGTTGCCT (site CCTTCTACTAG) | 0.225
CCTTCTACTTGGGTTCTAACCTGTTGCCT (site CCTTCTACTTA) | 0
CCTTGCCCTTGGGTTCTAACCTGTTGCCT (site CATTGCCCTAG) | 0.0176
CCTTGCCCTTGGGTTCTAACCTGTTGCCT (site CCTTGCCCTAG) | 0.667
CCTTGCCCTTGGGTTCTAACCTGTTGCCT (site CGTTGCCCTAG) | 0.1
CCTTGCCCTTGGGTTCTAACCTGTTGCCT (site CTTTGCCCTAG) | 0.117
CCTTGTCCTTGGGTTCTAACCTGTTGCAG (site CCTTGTCCTCT) | 0.79
CCTTGTCCTTGGGTTCTAACCTGTTGCAG (site CGTTGTCCTTT) | 0.144
CCTTGTGCTTGGGTTCTAACCTGTTGCGT (site CCTTGTGCTAC) | 0.158
CCTTGTGCTTGGGTTCTAACCTGTTGCGT (site TAGGTATCTCT) | 0.0915

Sequence | recombinant barcode read abundance (log10)
CCTTGTTCTTGGGTTCTAACCTGTTGCCT (site ACTTGTTCTAG) | 0.105
CCTTGTTCTTGGGTTCTAACCTGTTGCCT (site CCTTGTTCTAG) | 0.0314
CCTTGTTCTTGGGTTCTAACCTGTTGCCT (site GCTTGTTCTAG) | 0.14
CCTTGTTCTTGGGTTCTAACCTGTTGCCT (site TCTTGTTCTAG) | 0.0322
CCTTGTTCTTGGGTTCTAACCTGTTGCTA (site CCTTGTTCTTA) | 0.113
CCTTGTTCTTGGGTTCTAACCTGTTGCTA (site TCGTGTTCTTA) | 0.149
CGAAATGCTTGGGTTCTAACCTGTTGCCT (site CGAAATGCTAG) | 0.798
CGAAATGCTTGGGTTCTAACCTGTTGCCT (site CGCAATGCTAG) | 0.0184
CGAAATGCTTGGGTTCTAACCTGTTGCCT (site CGGAATGCTAG) | 0.035
CGAAATGCTTGGGTTCTAACCTGTTGCCT (site CGTAATGCTAG) | 0.77
CGAACGACTTGGGTTCTAACCTGTTGCTT (site CGAACGACTAA) | 0.0324
CGAACGACTTGGGTTCTAACCTGTTGCTT (site CGAACGACTAG) | 0.113
CGAACTACTTGGGTTCTAACCTGTTGCCT (site CGAACTACTAA) | 0.0404
CGAACTACTTGGGTTCTAACCTGTTGCCT (site CGAACTACTAC) | 0.311
CGAACTACTTGGGTTCTAACCTGTTGCCT (site CGAACTACTAG) | 0.0694
CGAACTACTTGGGTTCTAACCTGTTGCCT (site CGAACTACTAT) | 0.316
CGAATGTCTTGGGTTCTAACCTGTTGCGT (site CGAATGTCTAC) | 0.991
CGAATGTCTTGGGTTCTAACCTGTTGCGT (site CGACTGCCTAC) | 0.0251
CGACAGTCTTGGGTTCTAACCTGTTGCGT (site CGACAGTCTAC) | 2.41
CGACAGTCTTGGGTTCTAACCTGTTGCGT (site CGGCAGTCTAC) | 0.153
CGACCCTCTTGGGTTCTAACCTGTTGCCT (site AGACCCTCTAG) | 0.0358
CGACCCTCTTGGGTTCTAACCTGTTGCCT (site CGACCCTCTAG) | 1.74

Sequence | recombinant barcode read abundance (log10)
CGACCCTCTTGGGTTCTAACCTGTTGCCT (site GGACCCTCTAG) | 0.17
CGACCCTCTTGGGTTCTAACCTGTTGCCT (site TGACCCTCTAG) | 0.381
CGACGAGCTTGGGTTCTAACCTGTTGCGG (site CCACGAGCTCC) | 0.352
CGACGAGCTTGGGTTCTAACCTGTTGCGG (site CGACGAGCTCC) | 1.22
CGAGATCCTTGGGTTCTAACCTGTTGCAT (site CGAGATCCTAT) | 1.29
CGAGATCCTTGGGTTCTAACCTGTTGCAT (site CGAGGTACTAT) | 0
CGAGATCCTTGGGTTCTAACCTGTTGCCT (site CGACATCCTAG) | 0.214
CGAGATCCTTGGGTTCTAACCTGTTGCCT (site CGAGATCCTAG) | 0.678
CGAGGTACTTGGGTTCTAACCTGTTGCAT (site CGAGATCCTAT) | 0.0262
CGAGGTACTTGGGTTCTAACCTGTTGCAT (site CGAGGTACTAT) | 1.87
CGATACACTTGGGTTCTAACCTGTTGCCG (site CGATACACTCG) | 0.571
CGATACACTTGGGTTCTAACCTGTTGCCG (site CGATCCACTCA) | 0.052
CGATCACCTTGGGTTCTAACCTGTTGCCT (site CGATCACCTAG) | 0.105
CGATCACCTTGGGTTCTAACCTGTTGCCT (site TTCGGCTCTTA) | 0.665
CGATCCACTTGGGTTCTAACCTGTTGCTG (site CGATACACTCG) | 0.16
CGATCCACTTGGGTTCTAACCTGTTGCTG (site CGATCCACTCA) | 0.483
CGATGGACTTGGGTTCTAACCTGTTGCTG (site AAGCTTGCTAG) | 0.0171
CGATGGACTTGGGTTCTAACCTGTTGCTG (site CGATGGACTCA) | 1.81
CGATTTCCTTGGGTTCTAACCTGTTGCCT (site CGATTTCCTAG) | 0.0837
CGATTTCCTTGGGTTCTAACCTGTTGCCT (site CGATTTCCTAT) | 0.102
